This data set concerns the target ATP-binding cassette sub-family C member 2 (Homo sapiens, UniProt Q92887). The experiment in a line: TP_TRANSPORTER: uptake in membrane vesicle from MRP2-expressing 2008 cells. Type of data set: functional, cell membranes.

Sequence of ATP-binding cassette sub-family C member 2 (Q92887 whole entry): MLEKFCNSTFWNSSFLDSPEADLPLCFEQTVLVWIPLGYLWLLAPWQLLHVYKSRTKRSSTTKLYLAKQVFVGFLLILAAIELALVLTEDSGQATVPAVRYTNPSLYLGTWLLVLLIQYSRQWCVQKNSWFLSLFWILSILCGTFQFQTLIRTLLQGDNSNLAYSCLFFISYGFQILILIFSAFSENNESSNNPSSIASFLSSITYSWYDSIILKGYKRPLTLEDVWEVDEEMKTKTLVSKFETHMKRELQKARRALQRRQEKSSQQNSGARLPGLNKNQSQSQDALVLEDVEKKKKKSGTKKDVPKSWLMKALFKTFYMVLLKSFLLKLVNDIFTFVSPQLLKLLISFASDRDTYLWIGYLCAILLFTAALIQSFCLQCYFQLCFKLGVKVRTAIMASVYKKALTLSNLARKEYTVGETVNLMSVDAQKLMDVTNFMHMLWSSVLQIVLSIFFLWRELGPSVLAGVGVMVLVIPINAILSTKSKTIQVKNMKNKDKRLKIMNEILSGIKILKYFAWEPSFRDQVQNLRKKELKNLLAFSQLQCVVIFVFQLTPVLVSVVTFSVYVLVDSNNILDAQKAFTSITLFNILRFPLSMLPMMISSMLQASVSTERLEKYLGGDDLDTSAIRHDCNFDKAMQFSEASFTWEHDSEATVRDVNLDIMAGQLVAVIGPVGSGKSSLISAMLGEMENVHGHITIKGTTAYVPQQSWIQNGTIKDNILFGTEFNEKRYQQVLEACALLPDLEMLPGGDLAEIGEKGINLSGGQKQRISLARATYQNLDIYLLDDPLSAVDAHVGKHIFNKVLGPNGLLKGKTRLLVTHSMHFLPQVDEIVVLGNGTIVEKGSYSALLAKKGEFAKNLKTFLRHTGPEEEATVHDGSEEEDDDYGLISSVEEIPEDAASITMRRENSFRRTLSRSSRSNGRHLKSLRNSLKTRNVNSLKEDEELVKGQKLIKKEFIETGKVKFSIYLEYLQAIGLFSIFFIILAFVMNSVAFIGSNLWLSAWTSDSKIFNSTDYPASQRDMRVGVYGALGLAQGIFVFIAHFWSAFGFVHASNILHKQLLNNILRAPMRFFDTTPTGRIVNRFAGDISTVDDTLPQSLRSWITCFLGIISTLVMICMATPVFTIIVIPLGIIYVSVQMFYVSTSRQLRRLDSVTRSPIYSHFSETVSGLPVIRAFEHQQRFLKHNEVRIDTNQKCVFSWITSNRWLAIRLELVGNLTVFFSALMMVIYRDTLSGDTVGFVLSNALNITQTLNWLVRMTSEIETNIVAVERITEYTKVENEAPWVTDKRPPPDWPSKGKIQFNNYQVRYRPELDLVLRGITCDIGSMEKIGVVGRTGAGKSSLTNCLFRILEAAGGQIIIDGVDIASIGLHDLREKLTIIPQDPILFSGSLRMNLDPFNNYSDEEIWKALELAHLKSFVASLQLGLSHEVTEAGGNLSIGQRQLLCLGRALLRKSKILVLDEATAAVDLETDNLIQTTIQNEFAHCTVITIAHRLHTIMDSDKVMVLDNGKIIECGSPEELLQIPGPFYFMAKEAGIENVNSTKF

For the compound `CN(Cc1cnc2nc(N)nc(N)c2n1)c1ccc(C(=O)N[C@@H](CCC(=O)O)C(=O)O)cc1` [METHOTREXATE], the Activity entry was “substrate [+]”.

The record behind these values is ChEMBL document CHEMBL2074177, “Antifolate resistance mediated by the multidrug resistance proteins MRP1 and MRP2” (Cancer Res, 1999).
